Counter-ions that a name gives are not always drawn.

As usually defined, the melting point is the temperature of the solid-liquid transition.

As to `CC(C)Oc1cc(C(O)CN2CCN(CCc3ccccc3)CC2)ccc1-c1cccc(N)n1` (stereo not shown) (as salt: hydrochloride) [Example 1, 1-[4-(6-AMINO-PYRIDIN-2-YL)-3-ISOPROPOXY-PHENYL]-2-(4-PHENETHYL-PIPERAZIN-1-YL)-ETHANOL], the melting point was in the range of 148 to 165 °C.

The record behind these values is US20020151572A1, “PHARMACEUTICAL USES FOR NOS INHIBITORS” (priority 1998, published 2002).
